According to ChEMBL document CHEMBL1153745, “The Caulerpa pigment caulerpin inhibits HIF-1 activation and mitochondrial respiration” (J Nat Prod, 2009):
Calls of active or inactive are those of the source. No cut-off for these calls is given here.

Columns and labels:
[1] = tested on: MDA-MB-231; experiment: Growth inhibition of human MDA-MB-231 cells at 1 uM to 30 uM after 48 hrs by sulforhodamine B assay; format: functional, cell-based
[2] = tested on: MCF7; experiment: Growth inhibition of human MCF7 cells at 1 uM to 30 uM after 48 hrs by sulforhodamine B assay; format: functional, cell-based
[3] = tested on: HUVEC; experiment: Antiangiogenic activity in human HUVEC cells assessed as inhibition of normoxic T47D cell-conditioned media-induced tube formation at 30 uM after 18 hrs by Matrigel based tube formation assay; format: functional
[4] = tested on: T47D; experiment: Cytotoxicity against human T47D cells under hypoxic conditions at 30 uM after 16 hrs; format: cell-based
[5] = tested on: DU-145; experiment: Growth inhibition of human DU145 cells at 1 uM to 30 uM after 48 hrs by sulforhodamine B assay; format: functional, cell-based
[6] = Growth inhibition of human HMEC cells up to 30 uM after 48 hrs by sulforhodamine B assay; format: cell-based; settings: read-out: GI
[7] = tested on: HUVEC; experiment: Antiangiogenic activity in human HUVEC cells assessed as decrease in tube length up to 30 uM after 18 hrs by Matrigel based tube formation assay; format: functional, cell-based
[8] = tested on: T47D; experiment: Inhibition of hypoxia-induced GLUT1 mRNA expression in human T47D cells at 10 uM after 16 hrs by RT-PCR; format: functional, cell-based
[9] = tested on: T47D; experiment: Inhibition of electron transport protein complex 2 in human T47D cells assessed as decrease in oxygen consumption at 30 uM pretreated for 2 hrs before succinate addition by mitochondrial respiration assay; format: cell-based
[10] = biological target: T1, Hypoxia inducible factors; HIF-1-alpha, HIF-2-alpha (Homo sapiens) (UniProt Q16665+Q99814); experiment: Inhibition of 1,10-phenanthroline-induced HIF1 activation in human T47D cells at 1 uM after 16 hrs by pTK-HRE3-luciferase reporter gene assay; format: cell-based
[11] = tested on: T47D; experiment: Inhibition of hypoxia-induced secreted VEGF protein level in human T47D cells at 10 uM after 16 hrs by ELISA; format: functional, cell-based
[12] = tested on: T47D; experiment: Inhibition of electron transport protein complex 3 in human T47D cells assessed as decrease in oxygen consumption at 30 uM pretreated for 2 hrs before succinate addition by mitochondrial respiration assay; format: cell-based
[13] = tested on: T47D; experiment: Inhibition of hypoxia-induced GLUT1 mRNA expression in human T47D cells at 30 uM after 16 hrs by RT-PCR; format: functional, cell-based
[14] = tested on: T47D; experiment: Inhibition of 1,10-phenanthroline-induced GLUT1 mRNA expression in human T47D cells at 30 uM after 16 hrs by RT-PCR; format: functional, cell-based
[15] = tested on: HUVEC; experiment: Antiangiogenic activity in human HUVEC cells assessed as decrease in branch point number up to 30 uM after 18 hrs by Matrigel based tube formation assay; format: functional, cell-based
[16] = tested on: T47D; experiment: Inhibition of hypoxia-induced VEGF mRNA expression in human T47D cells at 30 uM after 16 hrs by RT-PCR; format: functional, cell-based
[17] = tested on: HUVEC; experiment: Antiangiogenic activity in human HUVEC cells assessed as inhibition of hypoxic T47D cell-conditioned media-induced tube formation at 30 uM after 18 hrs by Matrigel based tube formation assay; format: functional
[18] = tested on: T47D; experiment: Growth inhibition of human T47D cells at 1 uM to 30 uM after 48 hrs by sulforhodamine B assay; format: functional, cell-based
[19] = tested on: T47D; experiment: Inhibition of electron transport protein complex 1 in digitonin-permeabilized human T47D cells assessed as decrease in oxygen consumption at 30 uM by mitochondrial respiration assay; format: cell-based
[20] = tested on: T47D; experiment: Effect on luciferase expression in hypoxia-stimulated human T47D cells expressing pGL3 construct at 30 uM after 16 hrs by reporter gene assay; format: functional
[21] = tested on: T47D; experiment: Inhibition of hypoxia-induced nuclear HIF1alpha accumulation in human T47D cells at 10 uM after 4 hrs by Western blot analysis; format: functional, cell-based
[22] = tested on: T47D; experiment: Inhibition of hypoxia-induced nuclear HIF1beta accumulation in human T47D cells at 10 uM after 4 hrs by Western blot analysis; format: functional, cell-based
[23] = tested on: PC-3; experiment: Growth inhibition of human PC3 cells at 30 uM after 48 hrs by sulforhodamine B assay; format: functional; settings: PC-3, 48 h, read-out: GI
[24] = tested on: T47D; experiment: Inhibition of 1,10-phenanthroline-induced VEGF mRNA expression in human T47D cells at 30 uM after 16 hrs by RT-PCR; format: functional, cell-based
[25] = tested on: MDA-MB-231; experiment: Cytotoxicity against human MDA-MB-231 cells up to 30 uM after 22 hrs by neutral red method; format: cell-based; settings: mda-mb-231, 22 h
[26] = tested on: T47D; experiment: Inhibition of electron transport protein complex 1 in human T47D cells assessed as decrease in oxygen consumption at 30 uM pretreated for 2 hrs before malate and pyruvate addition by mitochondrial respiration assay; format: cell-based
[27] = tested on: T47D; experiment: Inhibition of 1,10-phenanthroline-induced nuclear HIF1alpha accumulation in human T47D cells at 10 uM after 4 hrs by Western blot analysis; format: functional, cell-based
[28] = tested on: MDA-MB-231; experiment: Inhibition of cell migration in human MDA-MB-231 cells under normoxic conditions after 22 hrs by wound-healing assay; format: functional, cell-based
[29] = tested on: MDA-MB-231; experiment: Inhibition of cell migration in human MDA-MB-231 cells under hypoxic conditions after 22 hrs by wound-healing assay; format: functional, cell-based
[30] = tested on: T47D; experiment: Inhibition of hypoxia-induced VEGF mRNA expression in human T47D cells at 10 uM after 16 hrs by RT-PCR; format: functional, cell-based
[31] = tested on: MDA-MB-231; experiment: Cytotoxicity against human MDA-MB-231 cells under hypoxic conditions up to 30 uM after 22 hrs by neutral red method; format: cell-based; settings: mda-mb-231, 22 h
[32] = tested on: T47D; experiment: Inhibition of secreted VEGF protein level in human T47D cells under normoxic conditions at 10 uM after 16 hrs by ELISA; format: functional, cell-based
[33] = tested on: T47D; experiment: Inhibition of electron transport protein complex 1 in digitonin-induced permeable human T47D cells assessed as reduction of oxygen consumption at 30 uM relative to control; format: cell-based
[34] = biological target: T1, Hypoxia inducible factors; HIF-1-alpha, HIF-2-alpha (Homo sapiens); experiment: Inhibition of 1,10-phenanthroline-induced HIF1 activation in human T47D cells after 16 hrs by pTK-HRE3-luciferase reporter gene assay; format: cell-based
[35] = tested on: HUVEC; experiment: Antiangiogenic activity in human HUVEC cells assessed as inhibition of hypoxic T47D cell-conditioned media-induced tube formation at 10 uM after 18 hrs by Matrigel based tube formation assay; format: functional
[36] = tested on: T47D; experiment: Inhibition of electron transport protein complex 4 in human T47D cells assessed as decrease in oxygen consumption at 30 uM pretreated for 2 hrs before TMPD/ascorbate addition by mitochondrial respiration assay; format: cell-based
[37] = tested on: T47D; experiment: Inhibition of electron transport protein complex 1 in human T47D cells assessed as reduction of oxygen consumption at 30 uM; format: cell-based
[38] = tested on: T47D; experiment: Inhibition of electron transport protein complex 1 in human T47D cells assessed as reduction of oxygen consumption at 30 uM pretreated for 2 hrs relative to untreated control; format: cell-based
[39] = tested on: T47D; experiment: Inhibition of cellular respiration in human T47D cells assessed as oxygen consumption; format: functional, cell-based
[40] = biological target: T1, Hypoxia inducible factors; HIF-1-alpha, HIF-2-alpha (Homo sapiens); experiment: Inhibition of hypoxia-induced HIF1 activation in human T47D cells at 1 uM after 16 hrs by pTK-HRE3-luciferase reporter gene assay; format: cell-based
[41] = tested on: T47D; experiment: Inhibition of electron transport protein complex 1 in human T47D cells assessed as reduction of oxygen consumption at 10 uM; format: cell-based

In the case of `COC(=O)/C1=C/c2c([nH]c3ccccc23)/C(C(=O)OC)=C\c2c1[nH]c1ccccc21` [CAULERPIN], the Activity [1] is reported as “Active”, the Activity [2] is reported as “Active” and the Activity [3] is reported as “inactive”. The Activity [4] was “<= 10%”, the Activity [5] was “inactive” and the inhibition at 48 h [6] was less than 25%. The Activity [7] was “Active”, the Activity [8] was “inactive” and the Activity [9] was “inactive”. For the same compound, the Activity [10] was “Active”, the Activity [11] was “Active” and the Activity [12] was “inactive”. The Activity [13] was “Active”, the Activity [14] was “inactive” and the Activity [15] was “Active”. For the same compound, the Activity [16] was “Active”, the Activity [17] was “Active” and the Activity [18] was “Active”. For the same compound, the Activity [19] was “Active”, the Activity [20] was “<=10%” and the Activity [21] was “Active”. The Activity [22] was “inactive”, the inhibition of growth at 30 µM [23] was 52% and the Activity [24] was “inactive”. The Activity [25] was 15%, the Activity [26] was “Active” and the Activity [27] was “inactive”. For the same compound, the Activity [28] was “Dose-dependent effect”, the Activity [29] was “Dose-dependent effect” and the Activity [30] was “inactive”. The Activity [31] was 15%, the Activity [32] was “inactive” and the inhibition [33] was 57%. The Activity [34] was “Dose-dependent effect”, the Activity [35] was “Active” and the Activity [36] was “inactive”. For the same compound, the inhibition [37] was 30%, the inhibition [38] was 87% and the Activity [39] was “Dose-dependent effect”. For the same compound, the Activity [40] was “Active” and the Activity [41] was “inactive”.
